Reference: ChEMBL document CHEMBL2074369, “Interactions of HIV protease inhibitors with a human organic cation transporter in a mammalian expression system” (Drug Metab Dispos, 2000)

Tests used:
[1] = molecular target: Solute carrier family 22 member 1, Homo sapiens (UniProt O15245); test: TP_TRANSPORTER: inhibition of TEA uptake (TEA: 10 uM) in OCT1-expressing HeLa cells
[2] = molecular target: T1, Solute carrier family 22 member 1 (Rattus norvegicus, UniProt Q63089); test: TP_TRANSPORTER: uptake in OCT1-expressing HeLa cells; type: functional, cell-based; conditions: human
T1 sequence (Q63089 whole entry): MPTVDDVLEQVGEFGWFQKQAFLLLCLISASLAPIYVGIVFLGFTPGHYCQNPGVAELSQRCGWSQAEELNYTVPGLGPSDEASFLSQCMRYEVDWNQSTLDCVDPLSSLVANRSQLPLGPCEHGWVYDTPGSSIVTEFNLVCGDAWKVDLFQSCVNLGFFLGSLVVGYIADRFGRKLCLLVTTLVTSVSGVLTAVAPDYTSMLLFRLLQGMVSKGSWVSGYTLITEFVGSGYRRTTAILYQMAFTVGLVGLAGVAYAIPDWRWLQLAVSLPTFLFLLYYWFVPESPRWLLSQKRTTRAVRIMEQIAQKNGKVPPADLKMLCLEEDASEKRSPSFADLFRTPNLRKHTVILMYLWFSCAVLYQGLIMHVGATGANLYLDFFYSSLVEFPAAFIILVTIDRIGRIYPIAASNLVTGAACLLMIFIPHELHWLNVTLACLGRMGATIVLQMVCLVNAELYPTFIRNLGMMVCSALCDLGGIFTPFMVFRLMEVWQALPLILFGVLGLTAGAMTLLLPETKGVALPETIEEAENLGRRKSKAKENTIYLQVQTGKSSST

Chain of Solute carrier family 22 member 1, Homo sapiens (O15245 whole entry, looked up): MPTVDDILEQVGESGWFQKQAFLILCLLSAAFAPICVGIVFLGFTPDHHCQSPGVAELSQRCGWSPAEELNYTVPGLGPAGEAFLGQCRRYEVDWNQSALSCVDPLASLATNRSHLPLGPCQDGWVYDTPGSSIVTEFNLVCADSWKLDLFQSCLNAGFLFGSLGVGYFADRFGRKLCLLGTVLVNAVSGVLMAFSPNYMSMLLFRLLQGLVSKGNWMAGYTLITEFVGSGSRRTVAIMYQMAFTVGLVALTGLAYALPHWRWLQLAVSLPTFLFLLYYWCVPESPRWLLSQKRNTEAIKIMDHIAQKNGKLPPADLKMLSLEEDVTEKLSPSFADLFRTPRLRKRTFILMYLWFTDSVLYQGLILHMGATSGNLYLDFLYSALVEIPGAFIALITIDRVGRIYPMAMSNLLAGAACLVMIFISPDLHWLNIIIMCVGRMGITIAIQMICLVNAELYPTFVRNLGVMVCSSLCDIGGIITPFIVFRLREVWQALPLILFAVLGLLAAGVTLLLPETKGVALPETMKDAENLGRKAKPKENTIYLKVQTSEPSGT

Row | IC50 [1] | Activity [2] | Compound
1 | 61.7 µM |  | CC(C)(C)NC(=O)[C@@H]1CN(Cc2cccnc2)CCN1C[C@@H](O)C[C@@H](Cc1ccccc1)C(=O)N[C@H]1c2ccccc2C[C@H]1O [INDINAVIR]
2 | 21.8 µM |  | Cc1c(O)cccc1C(=O)N[C@@H](CSc1ccccc1)[C@H](O)CN1C[C@H]2CCCC[C@H]2C[C@H]1C(=O)NC(C)(C)C [NELFINAVIR]
3 | 8.26 µM | is not a substrate [-] | CC(C)(C)NC(=O)[C@@H]1C[C@@H]2CCCC[C@@H]2CN1C[C@@H](O)[C@H](Cc1ccccc1)NC(=O)[C@H](CC(N)=O)NC(=O)c1ccc2ccccc2n1 [SAQUINAVIR]
